This experiment addresses T1, WNK3 (Homo sapiens, UniProt Q9BYP7).
T1 construct: purchased Thermo Fisher Scientific (Life Technologies) SelectScreen
Briefly: SelectScreen LanthaScreen. Conditions: read-out: % displacement. The format is binding. The essentials: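 NU5455 was profiled across the SelectScreen Broad panel of kinase activity and binding assays. Z'LYTE reactions such as CSF1R ran at apparent Km ATP, while the Adapta CAMK1 assay used ATP listed as 10. Values are given as percent.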
On the technique in general: In TR-FRET formats the signal depends on donor and acceptor labels being close together.

T1 sequence (Q9BYP7 whole entry): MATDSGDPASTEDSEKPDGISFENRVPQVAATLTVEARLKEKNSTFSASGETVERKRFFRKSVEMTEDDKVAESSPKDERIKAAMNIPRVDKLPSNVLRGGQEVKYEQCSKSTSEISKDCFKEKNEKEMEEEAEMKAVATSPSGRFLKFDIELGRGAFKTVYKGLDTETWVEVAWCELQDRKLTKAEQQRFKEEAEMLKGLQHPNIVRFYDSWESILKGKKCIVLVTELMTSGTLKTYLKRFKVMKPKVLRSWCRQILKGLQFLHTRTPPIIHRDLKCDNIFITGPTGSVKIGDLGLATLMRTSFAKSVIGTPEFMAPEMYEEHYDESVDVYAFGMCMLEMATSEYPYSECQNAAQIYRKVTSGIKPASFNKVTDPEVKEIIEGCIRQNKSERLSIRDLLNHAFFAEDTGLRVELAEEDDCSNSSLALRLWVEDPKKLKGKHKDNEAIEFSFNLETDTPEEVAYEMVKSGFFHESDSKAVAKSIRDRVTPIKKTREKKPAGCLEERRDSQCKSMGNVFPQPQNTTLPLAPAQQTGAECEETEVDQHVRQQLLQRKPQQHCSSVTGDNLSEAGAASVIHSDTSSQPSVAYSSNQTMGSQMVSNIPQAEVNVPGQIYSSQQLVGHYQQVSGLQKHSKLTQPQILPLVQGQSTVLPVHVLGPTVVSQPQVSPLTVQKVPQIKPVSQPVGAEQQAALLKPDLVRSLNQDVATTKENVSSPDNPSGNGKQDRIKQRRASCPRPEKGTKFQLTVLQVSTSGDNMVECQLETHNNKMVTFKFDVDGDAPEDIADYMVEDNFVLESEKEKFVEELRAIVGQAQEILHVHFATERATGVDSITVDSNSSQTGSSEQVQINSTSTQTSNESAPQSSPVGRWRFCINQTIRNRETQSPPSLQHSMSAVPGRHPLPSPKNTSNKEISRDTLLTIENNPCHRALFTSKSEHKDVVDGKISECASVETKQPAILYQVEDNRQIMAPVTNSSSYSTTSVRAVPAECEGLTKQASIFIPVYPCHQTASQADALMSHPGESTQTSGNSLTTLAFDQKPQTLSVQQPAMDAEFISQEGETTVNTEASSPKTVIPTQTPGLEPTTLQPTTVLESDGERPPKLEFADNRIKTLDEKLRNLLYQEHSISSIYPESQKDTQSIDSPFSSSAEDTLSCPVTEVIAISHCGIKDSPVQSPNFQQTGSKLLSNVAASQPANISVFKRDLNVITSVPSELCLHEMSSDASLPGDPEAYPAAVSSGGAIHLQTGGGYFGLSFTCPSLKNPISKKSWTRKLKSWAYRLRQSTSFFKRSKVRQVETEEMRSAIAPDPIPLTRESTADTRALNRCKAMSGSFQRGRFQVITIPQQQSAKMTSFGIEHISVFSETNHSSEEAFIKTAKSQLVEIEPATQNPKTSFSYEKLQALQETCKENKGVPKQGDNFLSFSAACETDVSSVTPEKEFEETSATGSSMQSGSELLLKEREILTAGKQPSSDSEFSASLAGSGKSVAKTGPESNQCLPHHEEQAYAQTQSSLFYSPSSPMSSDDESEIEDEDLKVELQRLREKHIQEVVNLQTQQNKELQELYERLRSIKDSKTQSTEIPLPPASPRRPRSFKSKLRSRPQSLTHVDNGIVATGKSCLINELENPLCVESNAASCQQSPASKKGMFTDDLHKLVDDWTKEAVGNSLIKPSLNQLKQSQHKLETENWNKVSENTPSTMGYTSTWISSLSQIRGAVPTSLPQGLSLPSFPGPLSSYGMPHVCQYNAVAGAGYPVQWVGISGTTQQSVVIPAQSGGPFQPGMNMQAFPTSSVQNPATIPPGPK

As to `CN(C(=O)CN1CCOCC1)c1ccc2sc3c(-c4cccc5c(=O)cc(N6CC7CCC(C6)O7)oc45)cccc3c2c1` [NU5455], the inhibition at 1 µM is -1.2%.
